Assays:
[1] = target: PDE5 enzyme isolated from human platelets (Homo sapiens (Human), UniProt O76074); assay: PDE5 assay (Example 109), formation of 5′GMP from cGMP, SPA; settings: for % inhibition at 5.0E−09 M: percent inhibition of control enzyme activity at 5.0E−09 M, assay of Example 109;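 for all read-outs here: tritiated 5′GMP counted by scintillation after SPA bead capture, enzyme reaction run 60 min at 22 °C, basal control is the mixture without enzyme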
Experimental: Evaluation of the effects of compounds of the present invention on the activity of the human phosphodiesterase-5 quantified by measuring the formation of 5′GMP from cGMP using PDE5 enzyme isolated from human platelets.
Thereafter, the reaction is initiated by addition of the enzyme and the mixture is incubated for 60 min at 22° C.
For basal control measurements, the enzyme is omitted from the reaction mixture. Following incubation SPA beads are added. After 20 min at 22° C. under shaking, the amount of [3H]5′GMP is quantified with a scintillation counter (Topcount, Packard).
The standard inhibitory reference compound is dipyridamole, which is tested in each experiment at several concentrations to obtain an inhibition curve from which its IC50 value is calculated.

[2] = Measurements of human plasma protein binding; type: in vitro ADME; settings: for recovery: human
Experimental: An aliquot of 200 μL of human plasma containing test compound was spiked into donor well (red chamber) of the insert. 350 μL of PBS was spiked into receiver well (white chamber) of the insert.
The samples were matrix equilibrated with opposite matrix (25 μL of plasma/buffer sample was matched with 25 μL of blank buffer/plasma). Matrix matched samples were precipitated with 200 μL of acetonitrile containing internal standard. Samples were vortexed at 1000 rpm for 5 min and centrifuged at 4000 rpm for 10 min. Supernatant was separated, diluted 2 fold with water and analysed in LC-MS/MS. TO control samples were processed immediately after the preparation of plasma working stock solutions. These samples serves as a measure for calculating the percentage recovery of test compounds.

% Bound in Plasma [2]	fraction unbound [2]	recovery [2]	SMILES	IC50 [1]	% inhibition at 5.0E−09 M [1]	PDE5 inhibition (in words) ([1]; human cGMP-specific PDE5, refers to Table 1)
			CCCOc1ccc(S(=O)(=O)N2CCN(CCO[N+](=O)[O-])CC2)cc1-c1nc2c(CCC)c(/C=N/O)n(CC)c2c(=O)[nH]1 [Compound 1a, (E)-2-(4-((3-(5-ethyl-6-((hydroxyimino)methyl)-4-oxo-7-propyl-4,5-dihydro-3H-pyrrolo[3,2-d]pyrimidin-2-yl)-4-propoxyphenyl)sulfonyl)piperazin-1-yl)ethyl nitrate]	12 nM	20.7%	
			CCCOc1ccc(S(=O)(=O)N2CCC(CCCO[N+](=O)[O-])CC2)cc1-c1nc2c(CCC)cn(CC)c2c(=O)[nH]1 [Compound 1d, 3-(1-((3-(5-ethyl-4-oxo-7-propyl-4,5-dihydro-3H-pyrrolo[3,2-d]pyrimidin-2-yl)-4-propoxyphenyl)sulfonyl)piperidin-4-yl)propyl nitrate]	> 10 nM	13.4%	
			CCCc1c(/C=N/O)n(C)c2c(=O)[nH]c(-c3cc(S(=O)(=O)N4CCC(CCO[N+](=O)[O-])CC4)ccc3OCC)nc12 [Compound 2a, (E)-2-(1-((4-ethoxy-3-(6-((hydroxyimino)methyl)-5-methyl-4-oxo-7-propyl-4,5-dihydro-3H-pyrrolo[3,2-d]pyrimidin-2-yl)phenyl)sulfonyl)piperidin-4-yl)ethyl nitrate]	2 nM	13.4%	
			CCCc1cn(C)c2c(=O)[nH]c(-c3cc(S(=O)(=O)N4CCN(CCCO[N+](=O)[O-])CC4)ccc3OCC)nc12 [Compound 2b, 3-(4-((4-ethoxy-3-(5-methyl-4-oxo-7-propyl-4,5-dihydro-3H-pyrrolo[3,2-d]pyrimidin-2-yl)phenyl)sulfonyl)piperazin-1-yl)propyl nitrate]	2 nM	18.2%	
99.65%	0.0035	105%	CCCc1cn(C)c2c(=O)[nH]c(-c3cc(S(=O)(=O)N4CCC(CCO[N+](=O)[O-])CC4)ccc3OCC)nc12 [Compound 2c, 2-(1-((4-ethoxy-3-(5-methyl-4-oxo-7-propyl-4,5-dihydro-3H-pyrrolo[3,2-d]pyrimidin-2-yl)phenyl)sulfonyl)piperidin-4-yl)ethyl nitrate]			
			CCCc1cn(C)c2c(=O)[nH]c(-c3cc(S(=O)(=O)N4CCN(CCO[N+](=O)[O-])CC4)ccc3OCC)nc12 [Compound 2d, 2-(4-((4-ethoxy-3-(5-methyl-4-oxo-7-propyl-4,5-dihydro-3H-pyrrolo[3,2-d]pyrimidin-2-yl)phenyl)sulfonyl)piperazin-1-yl)ethyl nitrate]	1.2 nM	57.8%	
			CCCOc1ccc(S(=O)(=O)N2CCC(CCO[N+](=O)[O-])CC2)cc1-c1nc2c(CCC)cn(C)c2c(=O)[nH]1 [Compound 3a, 2-(1-((3-(5-methyl-4-oxo-7-propyl-4,5-dihydro-3H-pyrrolo[3,2-d]pyrimidin-2-yl)-4-propoxyphenyl)sulfonyl)piperidin-4-yl)ethyl nitrate]		6.5%	
			CCCOc1ccc(S(=O)(=O)N2CCC(CCO)CC2)cc1-c1nc2c(CCC)c(CO)n(CC)c2c(=O)[nH]1 [Compound 6, 5-ethyl-2-(5-((4-(2-hydroxyethyl)piperidin-1-yl)sulfonyl)-2-propoxyphenyl)-6-(hydroxymethyl)-7-propyl-3,5-dihydro-4H-pyrrolo[3,2-d]pyrimidin-4-one]	2.4 nM		
			CCCOc1ccc(S(=O)(=O)N2CCC(CCO)CC2)cc1-c1nc2c(CCC)c(/C=N/O)n(CC)c2c(=O)[nH]1 [Compound 8, (E)-5-ethyl-2-(5-((4-(2-hydroxyethyl)piperidin-1-yl)sulfonyl)-2-propoxyphenyl)-4-oxo-7-propyl-4,5-dihydro-3H-pyrrolo[3,2-d]pyrimidine-6-carbaldehyde oxime]	2.7 nM	71.2%	
			CCCOc1ccc(S(=O)(=O)N2CCC(CCCO)CC2)cc1-c1nc2c(CCC)cn(CC)c2c(=O)[nH]1 [Compound 15, 5-ethyl-2-(5-((4-(3-hydroxypropyl)piperidin-1-yl)sulfonyl)-2-propoxyphenyl)-7-propyl-3,5-dihydro-4H-pyrrolo[3,2-d]pyrimidin-4-one]	1.8 nM	50.3%	
			CCCc1c(/C=N/O)n(C)c2c(=O)[nH]c(-c3cc(S(=O)(=O)N4CCC(CCO)CC4)ccc3OCC)nc12 [Compound 17, (E)-2-(2-ethoxy-5-((4-(2-hydroxyethyl)piperidin-1-yl)sulfonyl)phenyl)-5-methyl-4-oxo-7-propyl-4,5-dihydro-3H-pyrrolo[3,2-d]pyrimidine-6-carbaldehyde oxime]		33.2%	
			CCCc1cn(C)c2c(=O)[nH]c(-c3cc(S(=O)(=O)N4CCN(CCO)CC4)ccc3OCC)nc12 [Compound 20, 2-(2-ethoxy-5-((4-(2-hydroxyethyl)piperazin-1-yl)sulfonyl)phenyl)-5-methyl-7-propyl-3,5-dihydro-4H-pyrrolo[3,2-d]pyrimidin-4-one]		41.1%	
			CCCc1cn(C)c2c(=O)[nH]c(-c3cc(S(=O)(=O)N4CCN(CCCO)CC4)ccc3OCC)nc12 [Compound 23, 2-(2-ethoxy-5-((4-(3-hydroxypropyl)piperazin-1-yl)sulfonyl)phenyl)-5-methyl-7-propyl-3,5-dihydro-4H-pyrrolo[3,2-d]pyrimidin-4-one]		36.7%	
			CCCOc1ccc(S(=O)(=O)N2CCC(CCO)CC2)cc1-c1nc2c(CCC)cn(C)c2c(=O)[nH]1 [Compound 29, 2-(5-((4-(2-hydroxyethyl)piperidin-1-yl)sulfonyl)-2-propoxyphenyl)-5-methyl-7-propyl-3,5-dihydro-4H-pyrrolo[3,2-d]pyrimidin-4-one]		46.4%	
			CCCOc1ccc(S(=O)(=O)N2CCN(CCO)CC2)cc1-c1nc2c(CCC)cn(C)c2c(=O)[nH]1 [Compound 32, 2-(5-((4-(2-hydroxyethyl)piperazin-1-yl)sulfonyl)-2-propoxyphenyl)-5-methyl-7-propyl-3,5-dihydro-4H-pyrrolo[3,2-d]pyrimidin-4-one]		53.4%	
97.28%	0.0272	101%	CC(=O)CC(c1ccccc1)c1c(O)c2ccccc2oc1=O (stereo not shown) [Warfarin, reference compound]			
96.41%	0.0359	104%	CCCc1nn(C)c2c(=O)[nH]c(-c3cc(S(=O)(=O)N4CCN(C)CC4)ccc3OCC)nc12 [sildenafil, reference compound]			

SMILES	% Bound in Plasma [2]	fraction unbound [2]	recovery [2]	IC50 [1]	% inhibition at 5.0E−09 M [1]	PDE5 inhibition (in words) ([1]; human cGMP-specific PDE5, refers to Table 1)
CCCOc1ccc(S(=O)(=O)N2CCC(CCO)CC2)cc1-c1nc2c(CCC)cn(CC)c2c(=O)[nH]1 [Compound 5, 5-ethyl-2-(5-((4-(2-hydroxyethyl)piperidin-1-yl)sulfonyl)-2-propoxyphenyl)-7-propyl-3,5-dihydro-4H-pyrrolo[3,2-d]pyrimidin-4-one]	99.87%	0.0013	102%	0.29 nM	74.4%	much more potent PDE5 inhibitor
CCCc1cn(C)c2c(=O)[nH]c(-c3cc(S(=O)(=O)N4CCC(CCO)CC4)ccc3OCC)nc12 [Compound 14, 2-(2-ethoxy-5-((4-(2-hydroxyethyl)piperidin-1-yl)sulfonyl)phenyl)-5-methyl-7-propyl-3,5-dihydro-4H-pyrrolo[3,2-d]pyrimidin-4-one]	99.43%	0.0057	98.9%	0.3 nM		

— US11155558B2, “Dual mode of action soluble guanylate cyclase activators and phosphodiesterase inhibitors and uses thereof” (TOPADUR PHARMA AG, priority 2017, dated 2021)
